Earlier results as cited in article PMC1892056, “Barusiban suppresses oxytocin-induced preterm labour in non-human primates” (BMC Pregnancy and Childbirth, 2007).
Several values for one entry are separate records, joined by “and”; a condition that tells them apart may be missing. Identical values can stand only once. Like-named read-outs stand apart in the source and are kept apart here.

Key:
[1] = system: pregnant cynomolgus monkeys
Description: Background Preterm labour (PTL) is a major cause of neonatal mortality and morbidity, and oxytocin (OT) antagonists are potential tocolytics. Atosiban (TRACTOCILE) is a mixed vasopressin V1A/OT antagonist registered for acute treatment of PTL in Europe. Other off-label drugs have serious side effects. Barusiban is a selective OT antagonist which has reached clinical development. A monkey model with OT-induced PTL was developed to compare barusiban and atosiban. In addition, the feasibility for long-term treatment of PTL with barusiban was explored. Methods Conscious pregnant cynomolgus monkeys ... || Figure 2 Oxytocin-induced uterine contractions in cynomolgus monkeys. Individual infusion of 5–90 mU OT kg^-1 h^-1 induced stable uterine contractions of about 15–40 mmHg. No short- or long-term desensitisation of OT-induced contractions was observed. On the background of these stable OT-induced contractions, different tocolytics have been evaluated in terms of their PK/PD characteristics. Here two monkeys were infused in parallel for about 11 hours during the night. The switch-off the lights in the evening (06:00 PM) and switch-on the lights (06:00 AM) is labelled by respective symbols.

[2] = system: pregnant cynomolgus monkeys; design: method as in PMID 16914691; conditions: for Treatment days until delivery / end of treatment: continuous IV infusion from ca. GD 141, daily OT challenge, barusiban group delivered after the end of treatment; for Basal overall IUP before the daily OT challenges compared to control: during continuous barusiban or fenoterol treatment; for Day of delivery: gestational day, barusiban 150 μg kg^-1 h^-1 or fenoterol 3 μg kg^-1 h^-1 continuous infusion from ca. GD 141, daily OT challenge
Description: Background Preterm labour (PTL) is a major cause of neonatal mortality and morbidity, and oxytocin (OT) antagonists are potential tocolytics. Atosiban (TRACTOCILE) is a mixed vasopressin V1A/OT antagonist registered for acute treatment of PTL in Europe. […] Barusiban is a selective OT antagonist which has reached clinical development. A monkey model with OT-induced PTL was developed to compare barusiban and atosiban. In addition, the feasibility for long-term treatment of PTL with barusiban was explored.

[3] = system: pregnant cynomolgus monkeys; conditions: for Potency (IC50): calculated PK/PD potency (plasma concentration) for inhibition of OT-induced IUP, IV bolus or infusion; for Duration of action / Efficacy (decrease in IUP) / Onset of action: overall results for IV high- or low-dose bolus or infusion; for Duration of effect on IUP after high-dose infusion: two-hour high-dose IV infusion, barusiban 150 μg kg^-1 h^-1, atosiban 250 μg kg^-1 h^-1
Description: Table 1 Summary of barusiban and atosiban PK/PD characteristics | column: Barusiban; Atosiban || Background Preterm labour (PTL) is a major cause of neonatal mortality and morbidity, and oxytocin (OT) antagonists are potential tocolytics. Atosiban (TRACTOCILE) is a mixed vasopressin V1A/OT antagonist registered for acute treatment of PTL in Europe. Other off-label drugs have serious side effects. Barusiban is a selective OT antagonist which has reached clinical development. A monkey model with OT-induced PTL was developed to compare barusiban and atosiban. In addition, the feasibility for long-term treatment of PTL with barusiban was explored. Methods Conscious pregnant cynomolgus monkeys ... || Following induction of stable contractions by OT, barusiban or atosiban were administered as high- or low-dose bolus or infusion. […] However, barusiban's duration of action was generally longer than 13–15 hours, while atosiban's effect ceased within 1.5–3 hours (Table 1). The calculated potency of barusiban was about four times higher than the potency of atosiban. || (+ 1 further places)

[4] = pregnant cynomolgus monkeys, IV high- or low-dose bolus or infusion, plasma, LC-MS/MS
Description: Table 1 Summary of barusiban and atosiban PK/PD characteristics | column: Barusiban; Atosiban

human cloned OT receptor = conditions: selectivity OT receptor over V1A receptor
Description: Barusiban is a new long-acting OT receptor antagonist developed for PTL. It is a cyclic heptapeptide and an analogue of endogenous OT designed for longer duration of action. This could provide the convenience of less frequent administration in the clinic. Barusiban has approximately 300-fold greater affinity for the human cloned OT receptor than for the V1A receptor, whereas atosiban binds well to both receptors. […] It has reached phase II of clinical developmen ...

[5] = pregnant cynomolgus monkeys, OT-induced contractions

| Molecule | Treatment days until delivery / end of treatment [2] | Basal overall IUP before the daily OT challenges compared to control [2] | Day of delivery [2] [days] | Potency (IC50) [3] [ng/mL] | Duration of action [3, 5] [h] | Onset of action [3, 5] [h] | Duration of effect on IUP after high-dose infusion ([3]; n = 3) | Clearance [4] [mL/h/kg] | Distribution [4] [mL/kg] | Half-life [4] [min] | further results |
| --- | --- | --- | --- | --- | --- | --- | --- | --- | --- | --- | --- |
| oxytocin [OT] |  |  |  |  |  |  |  |  |  |  | Desensitisation of OT-induced contractions ([1]; OT infusion 5–90 mU kg^-1 h^-1, short- and long-term): no OT-related desensitization occurred; Induced uterine contractions (IUP) ([1]; individual OT infusions at 5–90 mU kg^-1 h^-1): 15–40 mmHg |
| CC(Cc1ccc(O)cc1)NCC(O)c1cc(O)cc(O)c1 (stereo not drawn) [fenoterol, reference compound] | ~17 days | unchanged | ~154 |  |  |  |  |  |  |  |  |
| Atosiban [reference compound] |  |  |  | 47.4 | 1 to 3 | ≤0.5 to 1.0 | 3 h | 539 to 936 | 359 to 640 | 27.6 to 39.6 | Efficacy (decrease in IUP) [3, 5]: ≤96%; Efficacy (decrease in IUP) ([3]; pregnant cynomolgus monkeys, OT-induced contractions, listed as atosiban): > 95% |
| Barusiban | approximately 23 days | unchanged | ~163 | 12.7 | > 13 to 15 | ≤0.5 to 1.5 | more than 14 h | 25 to 66 | 70 to 159 | 87.6 to 154 | Potency relative to atosiban ([3]; calculated potency of barusiban versus atosiban, OT-induced contractions): about four; Reversibility of inhibition of contractions ([3]; high-dose barusiban bolus, then escalating high-dose OT rescue infusion (133–2000 mU kg^-1 h^-1)): reversible with high-dose OT; Tolerability ([3]; pregnant cynomolgus monkeys): well tolerated; Duration of action ([3]; pregnant cynomolgus monkeys, OT-induced contractions, listed as barusiban): 13 to 15 h and > 13 h; Time to decrease in IUP compared with OT control levels ([3]; two hour high-dose IV infusion of barusiban at 150 μg kg^-1 h^-1, n = 3): ≤ 0.5 h; Affinity for the human cloned OT receptor relative to the V1A receptor (human cloned OT receptor): approximately 300 fold; Days with statistically lower IUP than the control group ([2]; barusiban 150 μg kg^-1 h^-1 continuous IV infusion, daily 3–6 h OT infusion): 8/17; Rise in overall IUP during OT infusion ([2]; barusiban 150 μg kg^-1 h^-1 continuous infusion, OT control about fourfold increase): 30%; Days with statistically lower IUP than the fenoterol group ([2]; barusiban 150 μg kg^-1 h^-1 versus fenoterol 3 μg kg^-1 h^-1, continuous IV infusion, daily 3–6 h OT infusion): 11/17 |
